Reference: publication PMC4045134, “Discovery of Triterpenoids as Reversible Inhibitors of α/β-hydrolase Domain Containing 12 (ABHD12)” (PLoS ONE, 2014)

What was measured:
Format in all cases: biochemical
CB1R [1] = target: T1, CB1R (Rattus norvegicus, UniProt P20272); assay: [35S]GTPγS binding, CB1R agonist activity, rat cerebellar membranes
T1 construct: membranes prepared from brain tissue of 4-week-old male rodents were used; from tissue; host or cells: rat cerebellar membranes
Description: (§1) The CB1 and CB2 receptor activity of the selected compounds (10 µM) were measured using the GTPγS binding assay according to the previously described methods, [33].
(§2) For ABPP experiments (Figure 6C) and cannabinoid receptor activity assays (Table S2), membranes prepared from brain tissue of 4-week-old male rodents were used. The animals were obtained from the National Laboratory Animal Centre, University of Eastern Finland. Approval for the harvesting of animal tissue was obtained from the local welfare officer of the University of Eastern Finland.

hABHD6 = target: T2, hABHD6 (Homo sapiens, UniProt Q9BV23); assay: Fluorescent glycerol assay in hABHD6-HEK293 lysates; details: for remaining activity at 10 µM: NI = no inhibition at 10 µM, read-out: hABHD6 Remaining activity % control ± s.e.m (n=3)
T2 construct: expressed in transfected cells; host or cells: HEK293 (transient)
T2 sequence (Q9BV23 1-337): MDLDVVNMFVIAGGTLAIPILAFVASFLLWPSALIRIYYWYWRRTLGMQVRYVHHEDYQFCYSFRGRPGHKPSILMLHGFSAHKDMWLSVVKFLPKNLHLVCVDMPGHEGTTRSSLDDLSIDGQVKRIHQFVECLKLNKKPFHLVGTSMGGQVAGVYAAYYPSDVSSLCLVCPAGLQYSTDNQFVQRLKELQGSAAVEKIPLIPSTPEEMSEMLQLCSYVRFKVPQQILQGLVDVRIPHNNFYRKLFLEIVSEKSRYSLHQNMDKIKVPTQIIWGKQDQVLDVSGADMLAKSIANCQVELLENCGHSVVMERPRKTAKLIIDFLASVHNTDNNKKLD
Description: (§3) Glycerol liberated from 1-AG hydrolysis was determined with a sensitive fluorescent assay using lysates of HEK293 cells with transient overexpression of hABHD12, hABHD6 or hMAGL, essentially as previously described. […] Fluorescence (λex 530; λem 590 nm) was monitored using a Tecan Infinite M200 plate reader (Tecan Group Ltd., Männedorf, Switzerland). Inhibitory activities of selected compounds towards FAAH were determined using membranes of hFAAH overexpressing COS-7 cells, essentially as previously described. The final incubation volume (100 µL) contained 1 µg of protein and the substrate concentration was 20 µM (10 nM of ^3H-anandamide having specific activity of 60 Ci/mmol and concentration of 1 mCi/mL).

hCB2R = target: T3, hCB2R (Homo sapiens, UniProt P34972); assay: [35S]GTPγS binding, CB2R agonist activity, hCB2R-CHO cell membranes
T3 construct: expressed in transfected cells; host or cells: CHO

hFAAH = target: T4, hFAAH (Homo sapiens, UniProt O00519); assay: FAAH activity, membranes of hFAAH overexpressing COS-7 cells, 3H-anandamide; details: read-out: hFAAH Remaining activity % control (mean (range)), n=2
T4 construct: expressed in transfected cells; host or cells: COS-7
T4 sequence (O00519 1-579): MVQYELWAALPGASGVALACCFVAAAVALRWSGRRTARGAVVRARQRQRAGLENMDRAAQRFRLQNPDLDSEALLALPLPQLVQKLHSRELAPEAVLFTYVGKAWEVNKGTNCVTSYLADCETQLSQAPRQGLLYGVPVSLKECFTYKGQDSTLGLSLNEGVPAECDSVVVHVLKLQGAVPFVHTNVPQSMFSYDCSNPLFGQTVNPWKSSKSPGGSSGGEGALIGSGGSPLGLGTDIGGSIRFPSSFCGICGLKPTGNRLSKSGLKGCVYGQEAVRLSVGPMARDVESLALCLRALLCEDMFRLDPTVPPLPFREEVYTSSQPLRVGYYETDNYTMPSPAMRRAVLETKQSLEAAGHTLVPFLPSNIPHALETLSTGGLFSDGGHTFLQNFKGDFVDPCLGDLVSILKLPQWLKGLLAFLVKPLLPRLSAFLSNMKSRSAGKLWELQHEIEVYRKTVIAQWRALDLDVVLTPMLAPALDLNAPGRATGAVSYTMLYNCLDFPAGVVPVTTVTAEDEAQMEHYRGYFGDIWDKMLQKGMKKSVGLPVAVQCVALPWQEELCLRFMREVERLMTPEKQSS
Description: as §3

hABHD12 [2] = target: T5, hABHD12 (Homo sapiens, UniProt Q8N2K0); assay: LC-MS assay of ABHD12 activity (1-AG utilization / AA formation) in hABHD12-HEK293 lysates; details: n = 2, dose-response by LC-MS; for IC50: s.d.
T5 construct: expressed in transfected cells; host or cells: HEK293 (transient)
T5 sequence (Q8N2K0 1-398): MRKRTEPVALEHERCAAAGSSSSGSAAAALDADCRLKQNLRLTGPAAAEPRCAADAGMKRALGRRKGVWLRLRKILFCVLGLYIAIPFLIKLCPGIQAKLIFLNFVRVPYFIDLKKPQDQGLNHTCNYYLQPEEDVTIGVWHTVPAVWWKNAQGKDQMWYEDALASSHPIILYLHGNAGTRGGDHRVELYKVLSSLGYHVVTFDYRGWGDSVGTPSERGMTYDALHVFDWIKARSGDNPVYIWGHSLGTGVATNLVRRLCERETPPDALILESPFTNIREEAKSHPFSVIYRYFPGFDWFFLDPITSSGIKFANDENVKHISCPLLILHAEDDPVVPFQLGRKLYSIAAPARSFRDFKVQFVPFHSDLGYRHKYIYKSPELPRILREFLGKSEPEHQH
Description: The fluorescent glycerol assay was mimicked otherwise but instead of assaying glycerol, utilization of 1-AG and concomitant formation of AA was monitored by LC-MS analysis. […] Enzymatic reaction was stopped by adding 400 µL of cold 11 mM H3PO4 in acetonitrile. 150 µL aliquots were filtered using Captiva 96-well filter plate (0.2 µm, Agilent Technologies, USA) into the Captiva 96-well collection plate (Agilent Technologies, USA) containing 50 µL of 0.1% formic acid in H2O. The collection plate was centrifuged at 4°C for 10 minutes and the samples were analyzed by LC-MS. HPLC system consisted of an Agilent 1200 Series Rapid Resolution LC System (Agilent Technologies, Waldbronn, Germany) with a solvent micro vacuum degasser, a binary pump, a thermostatted column compartment, and an autosampler. The mass analysis was made with an Agilent 6410 Triple Quadrupole MS equipped with an electrospray ionization (ESI) source (Agilent Technologies, Palo Alto, CA, USA). Five microliters of the sample solution were injected onto a reversed-phase HPLC column (Zorbax Eclipse XDB-C18 Rapid Resolution HT 2.1 mm×50 mm, 1.8 µm) (Agilent Technologies, Palo Alto, CA, USA) using an isocratic mobile phase consisting of 0.1% formic acid in a solution of H2O and methanol (20∶80 v/v) delivered at 0.5 mL/min. Column temperature was maintained at 50°C and the autosampler tray temperature was set at 4°C. The following ionization conditions were used for 1-AG: positive ESI mode, drying gas (nitrogen) temperature 300°C, drying gas flow rate 8 L/min, nebulizer pressure 40 psi, and capillary voltage 4000 V. The following ionization conditions were used for AA: negative ESI mode, drying gas (nitrogen) temperature 300°C, drying gas flow rate 8 L/min, nebulizer pressure 40 psi, and capillary voltage 4000 V. Analyte detection was performed using multiple reaction monitoring (MRM) with the following transitions: m/z 379 → 287 for 1-AG and m/z 303 → 303 for AA. Fragmentor voltage and collision energy for 1-AG and AA were 130 V/8 V and 175 V/2 V, respectively. […] In addition, the 2-AG positional isomer is chromatographically separated from 1-AG with retention time 2.1 min, and the peak areas of 1-AG and 2-AG were subsequently combined for all quantitative analyses reported and are thus collectively termed “1-AG”. The calibration range of 0.1–2,000 ng/mL and 0.1–1,000 ng/mL was prepared for monitored 1-AG and AA, respectively. The lower limit of quantification (LLOQ) for both analytes, 1-AG and AA, was 1.0 ng/mL.

hMAGL = target: T6, hMAGL (Homo sapiens, UniProt Q99685); assay: Fluorescent glycerol assay in hMAGL-HEK293 lysates; details: for remaining activity at 10 µM: read-out: hMAGL Remaining activity % control ± s.e.m (n=3)
T6 construct: expressed in transfected cells; host or cells: HEK293 (transient)
T6 sequence (Q99685 1-303): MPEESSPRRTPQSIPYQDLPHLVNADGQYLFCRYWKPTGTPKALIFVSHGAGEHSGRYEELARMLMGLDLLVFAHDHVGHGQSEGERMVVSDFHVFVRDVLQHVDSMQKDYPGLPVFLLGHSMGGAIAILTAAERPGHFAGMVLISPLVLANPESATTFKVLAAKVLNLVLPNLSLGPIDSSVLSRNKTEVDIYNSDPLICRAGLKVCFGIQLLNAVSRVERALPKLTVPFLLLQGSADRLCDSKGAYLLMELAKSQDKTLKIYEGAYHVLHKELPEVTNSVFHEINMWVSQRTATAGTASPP
Description: as §3

CB1R [3] = target: T1, CB1R; assay: [35S]GTPγS binding, CB1R antagonist activity, rat cerebellar membranes; details: 10 µM
Description: as §1, §2

hABHD12 [4] = target: T5, hABHD12; assay: Fluorescent glycerol assay of 1-AG hydrolysis in hABHD12-HEK293 lysates; details: for IC50 / Emax / remaining activity at 10 µM: hABHD12-HEK293 lysates; for Emax: read-out: max inhibition (converted); for remaining activity at 10 µM: NI = no inhibition, read-out: Remaining activity at 10 µM % ± s.e.m.
Description: as §3

[5] = three independent experiments, read-out: -logIC50±s.e.m. (converted)

T1 sequence (P20272 whole entry): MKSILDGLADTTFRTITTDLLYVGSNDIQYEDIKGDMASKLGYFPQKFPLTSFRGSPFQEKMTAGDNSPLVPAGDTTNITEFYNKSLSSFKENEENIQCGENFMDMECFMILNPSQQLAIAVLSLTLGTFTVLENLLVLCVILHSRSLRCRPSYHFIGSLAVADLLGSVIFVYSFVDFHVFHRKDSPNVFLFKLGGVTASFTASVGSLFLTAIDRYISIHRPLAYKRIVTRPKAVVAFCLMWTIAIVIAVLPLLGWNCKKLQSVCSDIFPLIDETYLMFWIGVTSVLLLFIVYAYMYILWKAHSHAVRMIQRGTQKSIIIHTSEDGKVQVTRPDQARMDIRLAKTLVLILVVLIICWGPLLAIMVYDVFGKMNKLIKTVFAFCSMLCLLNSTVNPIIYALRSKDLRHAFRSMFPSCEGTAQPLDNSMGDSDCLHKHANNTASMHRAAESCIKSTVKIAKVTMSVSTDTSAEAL
T3 sequence (P34972 whole entry): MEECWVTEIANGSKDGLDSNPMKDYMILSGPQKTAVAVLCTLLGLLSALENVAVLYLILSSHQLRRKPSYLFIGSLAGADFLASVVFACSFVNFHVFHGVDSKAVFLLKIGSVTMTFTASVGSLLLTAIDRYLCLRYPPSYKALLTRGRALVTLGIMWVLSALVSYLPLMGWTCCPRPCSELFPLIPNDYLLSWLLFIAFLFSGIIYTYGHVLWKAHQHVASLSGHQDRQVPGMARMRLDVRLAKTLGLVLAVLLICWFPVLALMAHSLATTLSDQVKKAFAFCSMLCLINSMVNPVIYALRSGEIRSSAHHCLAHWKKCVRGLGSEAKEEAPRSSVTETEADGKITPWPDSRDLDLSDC

Compound	remaining activity at 10 µM (hABHD6)	remaining activity at 10 µM (hFAAH)	IC50 (hABHD12 [2])	remaining activity at 10 µM (hMAGL)	IC50 (hABHD12 [4]; read-out: IC50)	Emax (hABHD12 [4])	also measured
C=C(C)[C@@H]1CC[C@]2(C(=O)O)CC[C@]3(C)[C@H](CC[C@@H]4[C@@]5(C)CC[C@H](O)C(C)(C)[C@@H]5CC[C@]43C)[C@@H]12 [Compound 1, Betulinic acid, reference compound]	~70%	83%	2.51 µM	76.7 ± 0.1%			CB1R agonist activity [35S]GTPγS binding % Basal (Mean (range), n=2) (CB1R [1]; 10 µM): 91 (87-96) % Basal; CB2R agonist activity [35S]GTPγS binding % Basal (Mean (range), n=2) (hCB2R; 10 µM): 132 (106-158) % Basal; CB1R antagonist activity [35S]GTPγS binding % HU210-evoked response (Mean (range), n=2) (CB1R [3]): 99 (98-99) % HU210-evoked response
C=C(C)[C@@H]1CC[C@]2(C(=O)O)CC[C@]3(C)[C@H](CC[C@@H]4[C@@]5(C)CCC(=O)C(C)(C)[C@@H]5CC[C@]43C)[C@@H]12 [Compound 18]			3.31 µM				max inhibition (hABHD12 [2]): 100%
C=C(C)[C@@H]1CC[C@]2(C=O)CC[C@]3(C)[C@H](CC[C@@H]4[C@@]5(C)CCC(=O)C(C)(C)[C@@H]5CC[C@]43C)[C@@H]12 [Compound 17]	93.6 ± 3.8%	95%		84.1 ± 4.8%	4.4 µM	57%	IC50 (hABHD12 [4]; [5]): 4.47 µM
C=C(C)[C@@H]1CC[C@]2(C(=O)O)CC[C@]3(C)[C@H](CC[C@@H]4[C@@]5(C)CCC(=O)NC(C)(C)[C@@H]5CC[C@]43C)[C@@H]12 [Compound 36]	80 ± 4.4%	88%		54.1 ± 4.7%	9.1 µM	88%	
CC1(C)CC[C@]23CC[C@]4(C)C(CC[C@@H]5[C@@]6(C)Cc7c([nH]c8ccc(F)cc78)C(C)(C)[C@@H]6CC[C@]54C)[C@H]2[C@H]1OC3 (some centres unmarked) [Compound 35]							hABHD12 inhibitory activity (in words) (hABHD12 [4]): total loss of the inhibitory activity; remaining activity at 10 µM (hABHD12 [4]): > 100%; inhibition at 10 µM (hMAGL; read-out: inhibition of MAGL at 10 µM): ~50%
C=C(C)[C@@H]1CC[C@]2(C=NO)CC[C@]3(C)[C@H](CC[C@@H]4[C@@]5(C)CCC(=NO)C(C)(C)[C@@H]5CC[C@]43C)[C@@H]12 [Compound 25]	103 ± 2.3%	97%	3.98 µM	88.7 ± 4.2%			max inhibition (hABHD12 [2]): 76%
SR144528							CB2R agonist activity [35S]GTPγS binding % Basal (Mean (range), n=2) (hCB2R; 1 µM): 68 (60-76) % Basal
C=C(C)[C@@H]1CC[C@]2(C=NO)CC[C@]3(C)[C@H](CC[C@@H]4[C@@]5(C)CC[C@H](O)C(C)(C)[C@@H]5CC[C@]43C)[C@@H]12 [Compound 24]	92.4 ± 3.9%	95%		86 ± 4.3%	6.5 µM	61%	
C=C(C)[C@@H]1CC[C@]2(C(=O)O)CC[C@]3(C)[C@H](CC[C@@H]4[C@@]5(C)CC6OC(C)(C)OC6C(C)(C)[C@@H]5CC[C@]43C)[C@@H]12 (some centres unmarked) [Compound 31]	93.2 ± 3%	91%		82.7 ± 4.1%	7.5 µM	90%	IC50 (hABHD12 [4]; [5]): 7.41 µM
CCCCCCC(C)(C)c1cc(O)c2c(c1)OC(C)(C)[C@@H]1CC=C(CO)C[C@@H]21 [HU210]							CB1R agonist activity [35S]GTPγS binding % basal ± SEM, n > 3 (CB1R [1]; reference compound at 1 µM): 430 ± 36 % Basal; CB2R agonist activity [35S]GTPγS binding % Basal (Mean (range), n=2) (hCB2R; 10 nM): 354 (348-361) % Basal
C[C@H]1[C@H](C)CC[C@]2(C(=O)O)CC[C@]3(C)C(=CC[C@@H]4[C@@]5(C)CC[C@H](O)C(C)(C)[C@@H]5CC[C@]43C)[C@H]12 [Compound 4, Ursolic acid, reference compound]			1.82 µM				effect on ABHD6 activity (hABHD6; preliminary screening): negligible effect; hABHD12 inhibitory activity (in words) (hABHD12 [4]): selectively inhibit ABHD12; remaining activity at 10 µM (hABHD12 [4]): ~30%; effect on MAGL activity (hMAGL; preliminary screening): negligible effect
